Tested on: TNF-α
Test: LPS-induced TNF-α production in RAW264.7 macrophages (ELISA)
Assay type: cell-based
Conditions: Mus musculus, LPS 5 μg/mL, 24 h
Description: (§1) RAW264.7 cell, a murine macrophage cell line, was purchased from American Type Culture Collection (ATCC, Manassas, VA, USA). Cells were grown in Dulbecco’s Modified Eagle Media (DMEM) containing 10% fetal bovine serum, 2 mM L-glutamine, 100 U/mL penicillin, and 100 μg/mL streptomycin and were maintained at 37 °C in a humidified incubator of 5% CO2.
(§2) RAW264.7 cells (1 × 10^5/well) were seeded into 96-well plates in triplicate and were treated with DMEM media only or 5 μg/mL of LPS or with indicated concentrations of compounds for 24 h. Supernatants were collected and then quantified with the mouse TNF-α, IL-6, and IL-1β ELISA kits following the manufacturer’s instructions.

SMILES | IC50
Cc1oc2cc1C(=O)N[C@@H](C(C)C)C(=O)NCCCCCCCCCCCC(=O)Nc1ccc(cc1)C(C)(C)/C=C\2C(C)(C)C [6h] | 56.4 µM
Cc1oc2cc1C(=O)NCCCCCCCCCCCC(=O)N[C@@H](C(C)C)C(=O)N[C@@H](Cc1ccccc1)C(=O)Nc1ccc(cc1)C(C)(C)/C=C\2C(C)(C)C [6e] | > 250 µM
Cc1oc2cc1C(=O)NCCCCCCCCCCCC(=O)Nc1ccc(cc1)C(C)(C)/C=C\2C(C)(C)C [6g] | 0.45 µM
Cc1oc2cc1C(=O)NCCCCCCCCCCCC(=O)N[C@@H](C)C(=O)Nc1ccc(cc1)C(C)(C)/C=C\2C(C)(C)C [6b] | 2.15 µM
Cc1oc2cc1C(=O)NCCCCCCCCCCCC(=O)N[C@@H](C(C)C)C(=O)Nc1ccc(cc1)C(C)(C)/C=C\2C(C)(C)C [6c] | 11.5 µM
CSCC[C@@H]1NC(=O)CCCCCCCCCCCNC(=O)c2cc(oc2C)/C(C(C)(C)C)=C\C(C)(C)c2ccc(cc2)NC(=O)[C@H](Cc2ccccc2)NC1=O [6f] | 10 µM
Cc1oc2cc1C(=O)NCCCCCCCCCCCC(=O)N1CCC[C@H]1C(=O)Nc1ccc(cc1)C(C)(C)/C=C\2C(C)(C)C [6d] | 107 µM
Cc1oc2cc1C(=O)NCCCCCCCCCCCC(=O)N[C@@H](Cc1ccccc1)C(=O)Nc1ccc(cc1)C(C)(C)/C=C\2C(C)(C)C [6a] | > 250 µM

Tested on: IL-1β
Test: LPS-induced IL-1β production in RAW264.7 macrophages (ELISA)
Assay type: cell-based
Conditions: Mus musculus, LPS 5 μg/mL, 24 h
Description: as §1, §2

SMILES | IC50
Cc1oc2cc1C(=O)N[C@@H](C(C)C)C(=O)NCCCCCCCCCCCC(=O)Nc1ccc(cc1)C(C)(C)/C=C\2C(C)(C)C [6h] | 0.0041 µM
Cc1oc2cc1C(=O)NCCCCCCCCCCCC(=O)N[C@@H](C(C)C)C(=O)N[C@@H](Cc1ccccc1)C(=O)Nc1ccc(cc1)C(C)(C)/C=C\2C(C)(C)C [6e] | 3.05 µM
Cc1oc2cc1C(=O)NCCCCCCCCCCCC(=O)Nc1ccc(cc1)C(C)(C)/C=C\2C(C)(C)C [6g] | 0.59 µM
Cc1oc2cc1C(=O)NCCCCCCCCCCCC(=O)N[C@@H](C)C(=O)Nc1ccc(cc1)C(C)(C)/C=C\2C(C)(C)C [6b] | 3.4 µM
Cc1oc2cc1C(=O)NCCCCCCCCCCCC(=O)N[C@@H](C(C)C)C(=O)Nc1ccc(cc1)C(C)(C)/C=C\2C(C)(C)C [6c] | 4.38 µM
CSCC[C@@H]1NC(=O)CCCCCCCCCCCNC(=O)c2cc(oc2C)/C(C(C)(C)C)=C\C(C)(C)c2ccc(cc2)NC(=O)[C@H](Cc2ccccc2)NC1=O [6f] | 8.61 µM
Cc1oc2cc1C(=O)NCCCCCCCCCCCC(=O)N1CCC[C@H]1C(=O)Nc1ccc(cc1)C(C)(C)/C=C\2C(C)(C)C [6d] | 17.6 µM
Cc1oc2cc1C(=O)NCCCCCCCCCCCC(=O)N[C@@H](Cc1ccccc1)C(=O)Nc1ccc(cc1)C(C)(C)/C=C\2C(C)(C)C [6a] | 12.8 µM

Tested on: IL-6
Test: LPS-induced IL-6 production in RAW264.7 macrophages (ELISA)
Assay type: cell-based, mouse
Conditions: Mus musculus; RAW264.7 macrophages, LPS 5 μg/mL, 24 h
Description: as §1, §2

SMILES | IC50
Cc1oc2cc1C(=O)N[C@@H](C(C)C)C(=O)NCCCCCCCCCCCC(=O)Nc1ccc(cc1)C(C)(C)/C=C\2C(C)(C)C [6h] | 0.95 µM
Cc1oc2cc1C(=O)NCCCCCCCCCCCC(=O)N[C@@H](C(C)C)C(=O)N[C@@H](Cc1ccccc1)C(=O)Nc1ccc(cc1)C(C)(C)/C=C\2C(C)(C)C [6e] | 80.8 µM
Cc1oc2cc1C(=O)NCCCCCCCCCCCC(=O)Nc1ccc(cc1)C(C)(C)/C=C\2C(C)(C)C [6g] | 1.59 µM
Cc1oc2cc1C(=O)NCCCCCCCCCCCC(=O)N[C@@H](C)C(=O)Nc1ccc(cc1)C(C)(C)/C=C\2C(C)(C)C [6b] | 7.28 µM
Cc1oc2cc1C(=O)NCCCCCCCCCCCC(=O)N[C@@H](C(C)C)C(=O)Nc1ccc(cc1)C(C)(C)/C=C\2C(C)(C)C [6c] | 10.5 µM
CSCC[C@@H]1NC(=O)CCCCCCCCCCCNC(=O)c2cc(oc2C)/C(C(C)(C)C)=C\C(C)(C)c2ccc(cc2)NC(=O)[C@H](Cc2ccccc2)NC1=O [6f] | 29.5 µM
Cc1oc2cc1C(=O)NCCCCCCCCCCCC(=O)N1CCC[C@H]1C(=O)Nc1ccc(cc1)C(C)(C)/C=C\2C(C)(C)C [6d] | 196 µM
Cc1oc2cc1C(=O)NCCCCCCCCCCCC(=O)N[C@@H](Cc1ccccc1)C(=O)Nc1ccc(cc1)C(C)(C)/C=C\2C(C)(C)C [6a] | 53.6 µM

Same assay, conditions: compared with Dexamethasone

SMILES | potency of inhibitory activity on IL-6 relative to Dexamethasone
Cc1oc2cc1C(=O)N[C@@H](C(C)C)C(=O)NCCCCCCCCCCCC(=O)Nc1ccc(cc1)C(C)(C)/C=C\2C(C)(C)C [6h] | approximately ten times more potent
Cc1oc2cc1C(=O)NCCCCCCCCCCCC(=O)Nc1ccc(cc1)C(C)(C)/C=C\2C(C)(C)C [6g] | approximately ten times more potent

Tested on: RAW264.7 cells
Test: Cell viability assay (MTT) in RAW264.7 cells
Assay type: cell-based, mouse
Conditions: at the indicated concentrations, compared to Dexamethasone
Description: as §1
(§3) RAW264.7 cells (1 × 10^5/well) were seeded into 96-well plates in triplicate and were treated with DMEM media or indicated concentrations of compounds for 24 h. MTT solution was added to each well at a final concentration of 0.5 mg/ml and incubated for 4 h before the end of the culture. The quantity of formazan is measured at 570 nm with a microplate reader (Molecular Devices, Sunnyvale, CA, USA) and the cell viability was calculated.

SMILES | cytotoxicity (in words)
Cc1oc2cc1C(=O)N[C@@H](C(C)C)C(=O)NCCCCCCCCCCCC(=O)Nc1ccc(cc1)C(C)(C)/C=C\2C(C)(C)C [6h] | did not show obvious cytotoxicity
Cc1oc2cc1C(=O)NCCCCCCCCCCCC(=O)Nc1ccc(cc1)C(C)(C)/C=C\2C(C)(C)C [6g] | did not show obvious cytotoxicity

Tested on: not listed separately
Test: Cell viability assay (MTT) in RAW264.7 cells
Assay type: cell-based, mouse
Conditions: mouse, RAW264.7 macrophage cells; RAW264.7 cells, 24 h, MTT; read-out: Cytotoxicity CC50
Description: as §1, §3

SMILES | CC50 at 24 h
Cc1oc2cc1C(=O)N[C@@H](C(C)C)C(=O)NCCCCCCCCCCCC(=O)Nc1ccc(cc1)C(C)(C)/C=C\2C(C)(C)C [6h] | 56.4 µM
Cc1oc2cc1C(=O)NCCCCCCCCCCCC(=O)N[C@@H](C(C)C)C(=O)N[C@@H](Cc1ccccc1)C(=O)Nc1ccc(cc1)C(C)(C)/C=C\2C(C)(C)C [6e] | > 250 µM
Cc1oc2cc1C(=O)NCCCCCCCCCCCC(=O)Nc1ccc(cc1)C(C)(C)/C=C\2C(C)(C)C [6g] | > 250 µM
Cc1oc2cc1C(=O)NCCCCCCCCCCCC(=O)N[C@@H](C)C(=O)Nc1ccc(cc1)C(C)(C)/C=C\2C(C)(C)C [6b] | 39.7 µM
Cc1oc2cc1C(=O)NCCCCCCCCCCCC(=O)N[C@@H](C(C)C)C(=O)Nc1ccc(cc1)C(C)(C)/C=C\2C(C)(C)C [6c] | 154 µM
CSCC[C@@H]1NC(=O)CCCCCCCCCCCNC(=O)c2cc(oc2C)/C(C(C)(C)C)=C\C(C)(C)c2ccc(cc2)NC(=O)[C@H](Cc2ccccc2)NC1=O [6f] | 214 µM
Cc1oc2cc1C(=O)NCCCCCCCCCCCC(=O)N1CCC[C@H]1C(=O)Nc1ccc(cc1)C(C)(C)/C=C\2C(C)(C)C [6d] | 27.7 µM
Cc1oc2cc1C(=O)NCCCCCCCCCCCC(=O)N[C@@H](Cc1ccccc1)C(=O)Nc1ccc(cc1)C(C)(C)/C=C\2C(C)(C)C [6a] | 152 µM

Tested on: NF-κB signaling pathway
Test: Western blotting of LPS-induced NF-κB signaling pathway activation in RAW264.7 cells
Assay type: cell-based, mouse
Conditions: Western blot
Description: as §1
RAW264.7 cells (6 × 10^5/well) were seeded into 24-well plates and treated with DMEM media only or 5 μg/mL of LPS or with indicated concentrations of compounds for 24 h. Cells were lysed in sodium dodecyl sulfate (SDS) sample buffer containing protease inhibitor cocktail (Roche Life Science, Mannheim, Germany). The resulted proteins were resolved by SDS-polyacrylamide gel electrophoresis and then subjected to the following antibodies: anti-mouse IKK-α, anti-mouse phospho-IKK-α, anti-mouse IκB-α, anti-mouse NF-κB p65, anti-mouse phospho-NF-κB p65 antibodies (Cell Signaling Technology, Beverly, MA), and HRP-conjugated mouse anti-GAPDH (Kangcheng, Shanghai, China). Signals were detected with an HRP-conjugated anti-rabbit IgG (Bio-Rad, Richmond, CA, USA) using an ECL system (Amersham Biosciences, Buckinghamshire, UK). The uncropped and unprocessed scans of indicated blots were supplied as Supplementary Figure 99 in the Supplementary Information.

SMILES | degradation of IκB-α | phosphorylation of IKK-α | phosphorylation of NF-κB
Cc1oc2cc1C(=O)NCCCCCCCCCCCC(=O)Nc1ccc(cc1)C(C)(C)/C=C\2C(C)(C)C [6g] | abrogate | abrogate | suppressed by 6g in a concentration-dependent manner

— publication PMC7910576, “Marine furanocembranoids-inspired macrocycles enabled by Pd-catalyzed unactivated C(sp^3)-H olefination mediated by donor/donor carbenes” (Nature Communications, 2021)
